Laboratory results reported in patent US20170073337A1, “DIHYDROTHIAZINE AND DIHYDROOXAZINE DERIVATIVES HAVING BACE1 INHIBITORY ACTIVITY” (Shionogi & Co., Ltd., priority 2014, published 2017).
In brackets after ≈: the same amount, converted by molar mass. Like-named read-outs stand apart in the source and are kept apart here.

Key:
CYP1A2 = molecular target: T1, CYP1A2 (Homo sapiens, UniProt P05177); experiment: CYP inhibition test (CYP1A2); type: in vitro ADME; settings: pooled human liver microsomes; 7-ethoxyresorufin O-deethylation
T1 construct: The commercially available pooled human liver microsomes are used as an enzyme resource; from tissue; host or cells: pooled human liver microsomes
T1 sequence (P05177 1-516): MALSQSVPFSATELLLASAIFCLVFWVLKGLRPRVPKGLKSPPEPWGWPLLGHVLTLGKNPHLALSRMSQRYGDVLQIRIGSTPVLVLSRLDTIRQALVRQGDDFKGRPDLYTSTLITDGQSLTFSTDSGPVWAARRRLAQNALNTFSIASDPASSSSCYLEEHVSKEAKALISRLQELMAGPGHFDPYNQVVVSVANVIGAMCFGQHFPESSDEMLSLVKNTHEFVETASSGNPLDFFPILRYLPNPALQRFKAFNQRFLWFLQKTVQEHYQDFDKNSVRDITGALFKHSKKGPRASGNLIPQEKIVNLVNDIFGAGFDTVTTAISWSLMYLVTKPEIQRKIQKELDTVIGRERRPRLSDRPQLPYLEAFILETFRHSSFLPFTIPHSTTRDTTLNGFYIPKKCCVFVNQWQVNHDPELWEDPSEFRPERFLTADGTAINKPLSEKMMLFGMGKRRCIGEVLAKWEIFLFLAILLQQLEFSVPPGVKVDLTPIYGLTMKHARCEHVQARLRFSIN
From the text: (§1) The CYP inhibition test is a test to assess the inhibitory effect of a compound of the present invention towards typical substrate metabolism reactions on CYP enzymes in human liver microsomes. The marker reactions on human main five CYP enzymes (CYP1A2, 2C9, 2C19, 2D6, and 3A4) are used as follows: 7-ethoxyresorufin O-deethylation (CYP1A2), tolbutamide methyl-hydroxylation (CYP2C9), mephenytoin 4′-hydroxylation (CYP2C19), dextromethorphan O-demethylation (CYP2D6), and terfenadine hydroxylation (CYP3A4). The commercially available pooled human liver microsomes are used as an enzyme resource.
(§2) The reaction conditions were as follows: substrate, 0.5 μmol/L ethoxyresorufin (CYP1A2), 100 μmol/L tolbutamide (CYP2C9), 50 μmol/L, S-mephenytoin (CYP2C19), 5 μmol/L dextromethorphan (CYP2D6), 1 μmol/L terfenadine (CYP3A4): reaction time, 15 minutes: reaction temperature, 37° C.; enzyme, pooled human liver microsomes 0.2 mg protein/mL; concentrations of the compound of the present invention, 1, 5, 10, 20 μmol/L (four points).
(§3) Five kinds of substrates, human liver microsomes, and a compound solution of the present invention in […] Hepes buffer were added to a 96-well plate at the composition as described above as a reaction solution. NADPH as a cofactor was added to this 96-well plate in order to initiate metabolism reactions. After the incubation at 37° C.for […], a methanol/acetonitrile=1/1 (v/v) solution was added to stop the reaction. After the centrifugation at 3000 rpm for 15 minutes, resorufin (CYP1A2 metabolite) in the supernatant was quantified by a fluorescent plate reader, and hydroxytolbutamide (CYP2C9 metabolite), 4′-hydroxymephenytoin (CYP2C19 metabolite), dextrorphan (CYP2D6 metabolite), and terfenadine alcohol metabolite (CYP3A4 metabolite) in the supernatant were quantified by LC/MS/MS.
(§4) The sample adding DMSO to a reaction system instead of compound of the present invention solution was adopted as a control (100%) because DMSO was used as a solvent to dissolve a compound of the present invention. Remaining activity (%) was calculated at each concentration of a compound of the present invention, and IC50 value was calculated by reverse presumption by a logistic model using a concentration and an inhibition rate.

[1] = molecular target: T2, human ether-a-go-go related gene (hERG) channel (Homo sapiens, UniProt Q12809); experiment: hERG test; type: cell-based; settings: % inhibition of IKr tail peak current at 3 uM; CHO cells expressing hERG
T2 construct: expressed in transfected cells; host or cells: CHO cells
T2 sequence (Q12809 whole entry): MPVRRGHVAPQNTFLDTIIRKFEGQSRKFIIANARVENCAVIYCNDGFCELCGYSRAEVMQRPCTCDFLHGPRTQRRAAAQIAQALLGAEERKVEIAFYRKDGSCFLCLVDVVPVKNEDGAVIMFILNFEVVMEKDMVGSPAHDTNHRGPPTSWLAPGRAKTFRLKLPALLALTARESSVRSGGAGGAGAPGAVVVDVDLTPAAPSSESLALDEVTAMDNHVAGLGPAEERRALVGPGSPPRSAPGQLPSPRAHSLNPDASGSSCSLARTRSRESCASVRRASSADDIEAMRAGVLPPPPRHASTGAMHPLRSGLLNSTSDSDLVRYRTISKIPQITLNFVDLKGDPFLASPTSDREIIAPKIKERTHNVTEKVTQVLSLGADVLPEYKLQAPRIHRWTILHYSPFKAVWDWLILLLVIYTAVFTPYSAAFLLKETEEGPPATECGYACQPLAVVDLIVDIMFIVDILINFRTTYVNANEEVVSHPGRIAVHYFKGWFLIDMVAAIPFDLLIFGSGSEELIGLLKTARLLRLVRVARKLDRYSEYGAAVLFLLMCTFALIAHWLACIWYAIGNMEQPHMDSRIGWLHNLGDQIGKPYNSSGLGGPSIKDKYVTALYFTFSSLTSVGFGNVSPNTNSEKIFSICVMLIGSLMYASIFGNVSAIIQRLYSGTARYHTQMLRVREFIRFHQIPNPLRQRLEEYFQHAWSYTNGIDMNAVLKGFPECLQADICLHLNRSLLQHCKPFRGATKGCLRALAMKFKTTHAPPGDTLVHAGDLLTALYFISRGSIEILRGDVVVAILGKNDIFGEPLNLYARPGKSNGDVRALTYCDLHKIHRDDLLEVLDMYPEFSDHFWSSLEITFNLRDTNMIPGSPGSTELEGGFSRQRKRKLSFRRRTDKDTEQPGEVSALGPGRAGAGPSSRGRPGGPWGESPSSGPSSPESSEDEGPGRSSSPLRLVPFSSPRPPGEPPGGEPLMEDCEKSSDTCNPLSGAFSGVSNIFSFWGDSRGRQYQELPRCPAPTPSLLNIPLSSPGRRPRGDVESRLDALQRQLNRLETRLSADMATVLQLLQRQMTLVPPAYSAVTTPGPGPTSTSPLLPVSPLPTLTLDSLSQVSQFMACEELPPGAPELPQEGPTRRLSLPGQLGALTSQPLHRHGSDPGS
From the text: For the purpose of assessing risk of an electrocardiogram QT interval prolongation, effects on delayed rectifier K+ current (IKr), which plays an important role in the ventricular repolarization process of the compound of the present invention, was studied using CHO cells expressing human ether-a-go-go related gene (hERG) channel.
A cell was retained at a membrane potential of […] by whole cell patch clamp method using an automated patch clamp system (QPatch:Sophion Bioscience A/S). After application of leak potential at −50 mV, IKr induced by depolarization pulse stimulation at +20 mV for 2 seconds and, further, repolarization pulse stimulation at −50 mV for 2 seconds was recorded.

CYP3A4 = molecular target: T3, CYP3A4 (Homo sapiens, UniProt P08684); experiment: CYP inhibition test (CYP3A4); type: in vitro ADME; settings: pooled human liver microsomes; terfenadine hydroxylation
T3 construct: The commercially available pooled human liver microsomes are used as an enzyme resource; from tissue; host or cells: pooled human liver microsomes
T3 sequence (P08684 whole entry): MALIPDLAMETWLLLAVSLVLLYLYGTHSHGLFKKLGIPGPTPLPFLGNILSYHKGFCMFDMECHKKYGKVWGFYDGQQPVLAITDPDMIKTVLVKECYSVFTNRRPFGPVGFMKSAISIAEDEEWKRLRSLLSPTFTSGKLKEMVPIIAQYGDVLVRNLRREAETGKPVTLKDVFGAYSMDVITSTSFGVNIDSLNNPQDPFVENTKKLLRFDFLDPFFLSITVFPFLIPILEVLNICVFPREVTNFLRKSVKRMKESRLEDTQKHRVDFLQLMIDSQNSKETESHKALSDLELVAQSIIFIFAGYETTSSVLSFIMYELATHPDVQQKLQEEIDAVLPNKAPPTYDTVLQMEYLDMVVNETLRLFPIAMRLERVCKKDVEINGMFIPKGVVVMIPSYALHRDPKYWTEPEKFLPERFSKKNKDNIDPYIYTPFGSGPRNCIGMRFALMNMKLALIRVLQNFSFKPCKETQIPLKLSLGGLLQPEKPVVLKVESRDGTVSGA
From the text: as §1, §2, §3, §4

Solubility test = type: physicochemical; settings: for solubility kinetic at 1 h: kinetic from dmso stock; for solubility kinetic at 16 h: solubility in JP 2nd fluid B, 1% DMSO, *2: shaken for 1 hour at room temperature
Method: A 10 mmol/L solution of the compound was prepared with DMSO, and 2 μL of the compound of the present invention solution was added, respectively, to 198 μL of JP 1st fluid (water was added to 2.0 g of sodium chloride and 7.0 ml, of hydrochloric acid to reach 1000 mL) and JP 2nd fluid (See Table 4). The mixture was left standing for 16 hours at 25° C. or shaken for 1 hour at ruom temperature, and the mixture was vacuum-filtered. The […] was ten or one hundred-fold diluted with metbanol/water=1/1 (v/v) or MeCN/MeOH/H2O(=1/1/2), and the compound concent ration in the filtrate was measured with LC/MS or solid phase extraction (SPE)/MS by the absolute calibration method.

CYP2C9 = molecular target: T4, CYP2C9 (Homo sapiens, UniProt P11712); experiment: CYP inhibition test (CYP2C9); type: in vitro ADME; settings: pooled human liver microsomes; tolbutamide methyl-hydroxylation
T4 construct: The commercially available pooled human liver microsomes are used as an enzyme resource; from tissue; host or cells: pooled human liver microsomes
T4 sequence (P11712 whole entry): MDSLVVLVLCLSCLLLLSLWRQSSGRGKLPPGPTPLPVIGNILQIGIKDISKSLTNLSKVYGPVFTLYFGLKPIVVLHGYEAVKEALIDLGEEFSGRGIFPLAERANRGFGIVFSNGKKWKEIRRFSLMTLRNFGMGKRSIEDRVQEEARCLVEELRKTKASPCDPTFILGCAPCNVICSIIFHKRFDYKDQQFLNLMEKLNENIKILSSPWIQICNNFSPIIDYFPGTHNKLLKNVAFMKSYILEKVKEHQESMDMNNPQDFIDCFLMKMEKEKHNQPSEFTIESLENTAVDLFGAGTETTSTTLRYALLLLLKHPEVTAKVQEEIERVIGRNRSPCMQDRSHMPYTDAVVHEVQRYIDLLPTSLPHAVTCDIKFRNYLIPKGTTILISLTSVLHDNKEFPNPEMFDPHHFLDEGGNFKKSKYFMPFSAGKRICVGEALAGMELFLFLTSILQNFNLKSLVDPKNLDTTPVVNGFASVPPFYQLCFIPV
From the text: as §1, §2, §3, §4

[2] = system: Aβ production in neuroblastoma SH-SY5Y cells (SH/APPwt); experiment: β-amyloid (Aβ) production inhibitory effect in cell: 384-well; type: cell-based; settings: Homo sapiens, Assay format 384-well
Method: Neuroblastoma SH-SY5Y cells (SH/APPwt) with human wild-type β-APT excessively expressed therein were prepared at 4×10^5 cells/mL, and 50 μl portions thereof were inoculated into each well of a 384-well culture plate (Corning) added 0.5 μl of the test compound of the present invention (DMSO solution). The final DMSO concentration was 1%, and the amount of the cell culture was 50 μl. After the incubation was performed for 21 hours from the cell seeding, 5 μl of the culture supernatant was collected from each fraction. The amount of the Aβ in each fraction was measured.
The Aβ amount was measured as follows. 5 μl of a homogeneous time resolved fluoresrenee (HTRF) measurement reagent (Amyloid β1-40 peptide; CIS bio international) and 5 μl of the culture supernatant were put into a 384′well plate (a black plate: Corning) and mixed with each other, and then left standing overnight at 4° C. while the light was shielded. Then, the fluorescence intensity (620 nm and 665 nm) was measured with EnViston (Perkin Elmer life sciences).

CYP2C19 = molecular target: T5, CYP2C19 (Homo sapiens, UniProt P33261); experiment: CYP inhibition test (CYP2C19); type: in vitro ADME; settings: pooled human liver microsomes; mephenytoin 4′-hydroxylation
T5 construct: The commercially available pooled human liver microsomes are used as an enzyme resource; from tissue; host or cells: pooled human liver microsomes
T5 sequence (P33261 whole entry): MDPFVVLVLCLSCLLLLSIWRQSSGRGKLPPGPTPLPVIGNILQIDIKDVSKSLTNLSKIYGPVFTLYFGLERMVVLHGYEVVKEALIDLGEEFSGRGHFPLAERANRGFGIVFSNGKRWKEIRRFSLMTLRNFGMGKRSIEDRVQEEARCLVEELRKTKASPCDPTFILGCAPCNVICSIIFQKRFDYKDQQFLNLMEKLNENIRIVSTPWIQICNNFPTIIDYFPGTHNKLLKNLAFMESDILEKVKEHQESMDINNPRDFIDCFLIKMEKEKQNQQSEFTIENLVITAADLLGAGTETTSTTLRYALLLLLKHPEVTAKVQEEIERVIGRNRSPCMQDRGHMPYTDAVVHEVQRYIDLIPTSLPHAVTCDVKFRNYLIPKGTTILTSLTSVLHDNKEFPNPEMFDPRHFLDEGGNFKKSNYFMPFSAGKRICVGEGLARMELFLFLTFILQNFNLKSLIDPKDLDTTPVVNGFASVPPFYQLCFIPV
From the text: as §1, §2, §3, §4

Recombinant human BACE1 = molecular target: T6, Recombinant human BACE1 (Homo sapiens, UniProt P56817); experiment: Assay of BACE1 inhibitory activity: 384-well; type: biochemical; settings: Assay format 384-well
T6 construct: purchased R&D Systems
T6 sequence (P56817 46-501): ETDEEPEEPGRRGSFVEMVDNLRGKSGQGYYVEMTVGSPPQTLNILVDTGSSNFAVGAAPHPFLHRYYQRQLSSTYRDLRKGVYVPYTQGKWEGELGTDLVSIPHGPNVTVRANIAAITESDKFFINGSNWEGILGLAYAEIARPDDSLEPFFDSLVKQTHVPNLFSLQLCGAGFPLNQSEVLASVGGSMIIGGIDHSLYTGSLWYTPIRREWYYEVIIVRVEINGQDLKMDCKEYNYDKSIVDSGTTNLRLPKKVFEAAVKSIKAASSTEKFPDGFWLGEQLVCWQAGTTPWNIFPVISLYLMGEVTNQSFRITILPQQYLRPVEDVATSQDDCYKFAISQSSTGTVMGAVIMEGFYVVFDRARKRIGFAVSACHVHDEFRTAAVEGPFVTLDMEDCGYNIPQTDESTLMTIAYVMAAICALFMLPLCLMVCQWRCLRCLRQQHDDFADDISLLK
Method: 5 μL of substrate peptide solution (Biotin-XSEVNLDAEFRHDSGC-Eu: X=ε-amino-n-capronic acid, Eu=Europium eryplate) was added to each well of 384-well plate (a black plate: Corning), and after addition of 0.1 μl of the compound of the present invention (DMSO solution) and 5 μl of Recombinant human BACE1 (R&D Systems), the reaction mixture was incubated at 25° C. for 2 hours. The substrate peptide was synthesized by reacting Cryptate TBPCOOH mono SMP (CIS bio international) with Biotin-XSEVNLDAEFRHDSGC (Peptide Institute, Inc.).
After the incubation for reaction, 10 μl of 8.0 μg/ml Streptavidin-XL665 (CIS bio International) dissolved in phosphate buffer (150 mmol/L K2HPO4-KH2PO4, pH 7.0, 0.008% Triton X-100, 0.8 mol/L KF) was added to each well and left stand at 25° C. for 30 minutes.

Metabolic stability test = type: in vitro ADME; settings: human liver microsomes, 37° C., 30 minutes, NADPH
Method: Using a commercially available pooled human liver microsomes, a compound of the present invention was reacted for a constant time, a remaining rate was calculated by comparing a reacted sample and an unreacted sample, thereby, a degree of metabolism in liver was assessed.
A reaction was performed (oxidative reaction) at 37° C. for 0 minute or 30 minutes in the presence of 1 mmol/L NADPH in 0.2 mL of a buffer (60 mmol/L Tris-HCl pH 7.4, 150 mmol/L potassium chloride, 10 mmol/L magnesium chloride) containing 0.5 mg protein/mL of human liver microsomes. After the reaction, 50 μL of the reaction solution was added to 100 μL of a methanol/acetonltrile=1/1 (v/v), mixed and centrifuged at 3000 rpm for 15 minutes. The compound of the present invention in the supernatant was quantified by LC/MS/MS or solid phase extraction (SPE)/MS, and a remaining amount of the compound of the present invention after the reaction area calculated, letting a compound amount at 0 minute reaction time to be 100%.

[3] = JP 1st fluid, pH 1.2, simulated gastric fluid, read-out: JP1
[4] = JP 2nd fluid B, pH 6.8, aqueous buffer, read-out: JP2_μM

SMILES | IC50 (CYP1A2) [µM] | hERG_3 uM_% [1] [%] | IC50 (CYP3A4) [µM] | solubility kinetic at 1 h (Solubility test; [3]) [µM] | solubility kinetic at 16 h (Solubility test; read-out: JP2_μM) [µM] | IC50 (CYP2C9) [µM] | IC50 [2] [µM] | IC50 (CYP2C19) [µM] | solubility kinetic at 1 h (Solubility test; [4]) [µM] | IC50 (Recombinant human BACE1) [µM] | remaining % (Metabolic stability test) [%]
C[C@]1(c2cc(NC(=O)c3cnc(OCF)cn3)ccc2F)N=C(N)SCC12CC(F)(F)C2 [Compound I-56] | ≥ 20 | 37.6 | ≥ 10 | > 50 | >50 | ≥ 20 | 0.00053 | ≥ 20 |  |  | 
CC[C@H]1SC(N)=N[C@](C)(c2cc(NC(=O)c3ncc(C#N)cc3C)ccc2F)[C@H]1F [Compound I-68] | ≥ 20 |  | ≥ 10 | > 50 |  |  | 0.00041 | ≥ 20 | 9.1 (≈ 3.91 µg/mL) | 0.0116 | 
CC[C@H]1SC(N)=N[C@](C)(c2cc(NC(=O)c3ccc(C#N)cn3)ccc2F)[C@H]1F [Compound I-69] |  |  | ≥ 10 | > 50 | >50 |  | 0.00042 |  |  | 0.00924 | 77.6
COC[C@H]1SC(N)=N[C@](C)(c2cc(NC(=O)c3ccc(C#N)cn3)ccc2F)[C@H]1F [Compound I-92] | ≥ 20 |  | ≥ 20 | > 50 | >50 |  | 0.001 | ≥ 20 |  | 0.00827 | 81
COc1ccc(C(=O)Nc2ccc(F)c([C@@]3(C)N=C(N)O[C@H](C(F)(F)C4CC4)[C@@H]3F)c2)nc1 [Compound I-93] | ≥ 20 |  |  | > 50 |  |  | 0.028 | ≥ 20 | 6.1 (≈ 2.85 µg/mL) | 0.0445 | 82.2
C[C@]1(c2cc(NC(=O)c3cnc(OCF)cn3)ccc2F)N=C(N)O[C@H](C2(F)CC2)[C@@H]1F [Compound I-94] |  |  |  |  |  |  | 0.0035 |  |  |  | 
COc1cnc(C(=O)Nc2ccc(F)c([C@@]3(C)N=C(N)O[C@H](C4(F)CC4)[C@@H]3F)c2)cn1 [Compound I-97] | ≥ 20 |  | ≥ 20 | > 50 | >50.0 |  | 0.0025 | ≥ 20 |  | 0.0105 | 
COc1ccc(C(=O)Nc2ccc(F)c([C@@]3(C)N=C(N)O[C@H](C4(F)CC4)[C@@H]3F)c2)nc1 [Compound I-100] | ≥ 20 |  | ≥ 20 | > 50 | >50.0 |  | 0.013 | ≥ 20 |  | 0.026 | 60.2
[2H]C([2H])([2H])Oc1cnc(C(=O)Nc2ccc(F)c([C@@]3(C)N=C(N)S[C@H](C)[C@@H]3F)c2)cn1 [Compound I-111] | ≥ 20 |  | ≥ 20 | 48.4 (≈ 19.9 µg/mL) |  |  | 0.00097 | ≥ 20 | > 50 | 0.0103 | 64.9
